Laboratory results as given in ChEMBL document CHEMBL3779893, “Identification of novel GLUT inhibitors” (Bioorg Med Chem Lett, 2016).

Legend:
[1] = biological target: T1, Solute carrier family 2, facilitated glucose transporter member 1 (Homo sapiens, UniProt P11166); experiment: Inhibition of human GLUT1 expressed in DLD1 cells assessed as ATP production co-incubated with 100 mM glucose for 16 hrs by CellTiter-Glo assay in presence of oxidative phosphorylation inhibitor rotenone; format: cell-based, DLD-1
T1 sequence (P11166 whole entry): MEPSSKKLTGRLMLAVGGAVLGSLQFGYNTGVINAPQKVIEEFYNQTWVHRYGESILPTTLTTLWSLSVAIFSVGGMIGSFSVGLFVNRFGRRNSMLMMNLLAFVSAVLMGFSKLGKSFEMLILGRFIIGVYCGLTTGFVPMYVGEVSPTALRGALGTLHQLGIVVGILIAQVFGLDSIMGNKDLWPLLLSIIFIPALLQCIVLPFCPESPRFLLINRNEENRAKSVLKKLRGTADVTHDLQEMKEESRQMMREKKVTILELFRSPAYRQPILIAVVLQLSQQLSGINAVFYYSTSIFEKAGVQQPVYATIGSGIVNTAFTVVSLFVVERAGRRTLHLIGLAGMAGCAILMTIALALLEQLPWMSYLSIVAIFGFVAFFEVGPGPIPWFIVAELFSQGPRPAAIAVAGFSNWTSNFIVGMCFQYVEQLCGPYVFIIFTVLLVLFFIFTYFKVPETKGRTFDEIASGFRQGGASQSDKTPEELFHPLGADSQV

[2] = Intrinsic clearance in human liver microsomes; format: ADME; conditions: read-out: CLH (converted)
[3] = Intrinsic clearance in human hepatocytes; format: ADME, cell-based, Hepatocyte; conditions: read-out: CLH (converted)
[4] = Intrinsic clearance in rat liver microsomes; format: ADME; conditions: read-out: CLH (converted)
[5] = Intrinsic clearance in mouse liver microsomes; format: ADME; conditions: read-out: CLH (converted)
[6] = Apparent permeability from apical to basolateral side in human Caco2 cells at 2 uM after 2 hrs; format: ADME, cell-based; conditions: Caco-2
[7] = biological target: T2, Solute carrier family 2, facilitated glucose transporter member 2 (Homo sapiens, UniProt P11168); experiment: Inhibition of human GLUT2 expressed in CHO cells assessed as ATP production co-incubated with 30 mM fructose for 16 hrs by CellTiter-Glo assay in presence of oxidative phosphorylation inhibitor rotenone; format: cell-based
T2 sequence (P11168 whole entry): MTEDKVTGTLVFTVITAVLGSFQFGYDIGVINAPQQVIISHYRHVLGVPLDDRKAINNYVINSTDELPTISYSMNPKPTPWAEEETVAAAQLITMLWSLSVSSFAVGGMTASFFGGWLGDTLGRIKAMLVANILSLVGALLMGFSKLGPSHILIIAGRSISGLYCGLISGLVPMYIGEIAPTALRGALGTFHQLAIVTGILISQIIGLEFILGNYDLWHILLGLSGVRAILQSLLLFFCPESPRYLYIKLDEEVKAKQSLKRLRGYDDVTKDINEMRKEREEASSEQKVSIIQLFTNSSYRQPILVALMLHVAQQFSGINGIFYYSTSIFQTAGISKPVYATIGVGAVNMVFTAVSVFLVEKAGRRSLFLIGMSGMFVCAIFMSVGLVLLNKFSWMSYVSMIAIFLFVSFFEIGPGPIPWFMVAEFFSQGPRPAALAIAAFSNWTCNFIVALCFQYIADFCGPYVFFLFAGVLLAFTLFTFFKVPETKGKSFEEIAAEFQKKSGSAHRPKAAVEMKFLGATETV

[8] = Efflux ratio of apparent permeability from basolateral to apical side over apical to basolateral side in human Caco2 cells; format: ADME, cell-based; conditions: Caco-2
[9] = biological target: T3, Solute carrier family 2, facilitated glucose transporter member 3 (Homo sapiens, UniProt P11169); experiment: Inhibition of human GLUT3 expressed in GLUT1 knock-out DLD1 cells assessed as ATP production co-incubated with 300 mM glucose for 16 hrs by CellTiter-Glo assay in presence of oxidative phosphorylation inhibitor rotenone; format: cell-based, DLD-1
T3 sequence (P11169 whole entry): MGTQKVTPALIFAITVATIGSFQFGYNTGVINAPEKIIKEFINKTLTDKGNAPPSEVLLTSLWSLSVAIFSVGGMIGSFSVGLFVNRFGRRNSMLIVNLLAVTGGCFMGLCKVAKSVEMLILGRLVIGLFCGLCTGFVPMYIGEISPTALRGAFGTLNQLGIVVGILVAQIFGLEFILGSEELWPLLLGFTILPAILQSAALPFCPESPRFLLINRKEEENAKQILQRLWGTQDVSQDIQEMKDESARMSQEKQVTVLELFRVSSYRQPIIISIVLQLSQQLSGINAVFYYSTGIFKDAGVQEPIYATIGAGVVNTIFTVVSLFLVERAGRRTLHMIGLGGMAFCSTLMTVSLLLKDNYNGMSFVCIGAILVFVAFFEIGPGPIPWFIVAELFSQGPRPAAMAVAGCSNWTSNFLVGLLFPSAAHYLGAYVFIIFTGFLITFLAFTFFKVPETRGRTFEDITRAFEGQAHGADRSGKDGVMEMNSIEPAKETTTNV

[10] = Intrinsic clearance in rat hepatocytes; format: ADME, cell-based, Hepatocyte; conditions: read-out: CLH (converted)
[11] = Terminal half life in Wistar rat at 0.3 mg/kg, iv and 5 mg/kg, po; format: ADME, organism-based; conditions: in vivo, read-out: beta t1/2 (converted)
[12] = Oral bioavailability in Wistar rat at 5 mg/kg; format: ADME, organism-based; conditions: in vivo
[13] = Volume of distribution at steady state in Wistar rat at 0.3 mg/kg, iv and 5 mg/kg, po; format: ADME, organism-based; conditions: in vivo, read-out: Vdss
[14] = Cmax in Wistar rat at 5 mg/kg, po; format: ADME, organism-based; parameters: dose 5 mg/kg, route oral; conditions: in vivo
[15] = Blood clearance in Wistar rat at 0.3 mg/kg, iv and 5 mg/kg, po; format: ADME, organism-based; conditions: whole blood

| IC50 [1] | CLint scaled [2] | CLint scaled [3] | CLint scaled [4] | CLint scaled [5] | Papp A→B at 2 h, 2 µM [6] | IC50 [7] | efflux ratio [8] | IC50 [9] | CLint scaled [10] | half-life [11] | bioavailability [12] | Vd [13] | Cmax [14] | clearance [15] | Compound |
| --- | --- | --- | --- | --- | --- | --- | --- | --- | --- | --- | --- | --- | --- | --- | --- |
| 0.025 µM | 0.14 L/h/kg | 0.84 L/h/kg | 2.2 L/h/kg | 2.3 L/h/kg | 59 nm/s | > 10 µM | 0.29 | 0.25 µM | 2.7 L/h/kg |  |  |  |  |  | COc1ccccc1N1CCN(c2ncnc3c2cnn3-c2ccccc2)CC1 |
| 0.035 µM | 0.55 L/h/kg |  |  | 1.9 L/h/kg |  | > 10 µM |  | 0.12 µM |  |  |  |  |  |  | COc1ccccc1N1CCN(c2ncnc3c2cnn3-c2cccc(F)c2)CC1 |
| 0.04 µM | 0.83 L/h/kg |  |  |  | 153 nm/s | 2 µM | 0.33 | 0.12 µM | 3.7 L/h/kg |  |  |  |  |  | COc1ccccc1N1CCN(c2ncnc3c2cnn3C2CCCC2)CC1 |
| 0.007 µM | 0.5 L/h/kg | 0.79 L/h/kg |  | 1.7 L/h/kg | 175 nm/s | 1.1 µM | 0.42 | 0.04 µM | 2.2 L/h/kg | 2.7 h | 67% | 1.9 L/kg | 1.7 µM | 1.2 L/h/kg | COc1ccccc1N1CCN(c2ncnc3c2cnn3-c2ccccc2F)CC1 |
